Laboratory results taken from patent publication US8697867B2, “Cross-linked cyclic amine compounds and agents for pest control” (Nippon Soda Co., Ltd., priority 2005, dated 2014).

Assays:
Tetranychus urticae = experiment: Effectiveness against Tetranychus urticae (adulticidal rate on common bean leaf); assay type: in vivo; conditions: 125 ppm wettable powder dilution; adult females resistant to organophosphorus pesticides; 3 days after application; 25° C., 65% humidity
Panonychus citri = experiment: Effectiveness against Panonychus citri (mandarin orange leaf in petri dish); assay type: in vivo; conditions: 125 ppm emulsion dilution; adults removed 3 days after application; examined on the 11th day; 25° C., 65% humidity
Method: 10 adult female Panonychus citri were inoculated on the leaf of a mandarin orange, which was placed in a petri dish. After the inoculation, the drug solution, which was prepared by following the method of the emulsion shown in Example 2 of the drugs and by diluting with water to achieve the compound concentration of 125 ppm, was applied using a rotary spreading tower. The dish was placed in a temperature-controlled room where the temperature and humidity were set to 25° C. and 65% respectively, adults were removed 3 days after the application, and whether eggs laid during these 3 days could grow to become adults was examined on the 11th day.

Row | SMILES | insecticidal rate (adulticidal rate) (Tetranychus urticae) [%] | insecticidal rate (whether eggs laid during 3 days could grow to adults) (Panonychus citri) [%]
1 | CCCOc1cc(C(F)(F)F)ccc1OC1CC2CCC(C1)N2c1ccc(C(F)(F)F)c(F)c1 (stereo not drawn) [Compound 4-70, 3α-[2-n-propoxy-4-(trifluoromethyl)phenoxy]-8-[3-fluoro-4-(trifluoromethyl)phenyl]-8-azabicyclo[3.2.1]octane] | 100 | 100
2 | FC(F)(F)c1ccc(OC2CC3CCC(C2)N3c2ccc(C(F)(F)F)cn2)nc1 (stereo not drawn) [Compound 2-3, 3α-(5-trifluoromethyl-2-pyridyloxy)-8-(5-trifluoromethyl-pyridin-2-yl)-8-azabicyclo[3.2.1]octane] | 100 | 
